# According to ChEMBL document CHEMBL5620368, “Molecular-level strategic goals and repressors in Leishmaniasis - Integrated data to accelerate target-based heterocyclic scaffolds” (Eur J Med Chem, 2023):
# How the values were obtained:
# Leishmania donovani = test: Antileishmanial activity against Leishmania donovani promastigotes assessed as reduction in parasite growth incubated for 48 hrs by MTT assay; type: functional, organism-based
# [1] = Inhibition of recombinant Leishmania mexicana Trypanothione reductase
# Leishmania amazonensis [2] = test: Antileishmanial activity against Leishmania amazonensis promastigotes assessed as parasite growth inhibition incubated for 24 hrs; type: functional, organism-based
# Leishmania amazonensis [3] = test: Antileishmanial activity against axenic amastigote form of patient derived Leishmania amazonensis MHOM/BR/77/LTB001 assessed as parasite growth inhibition incubated for 24 hrs; type: functional, organism-based; conditions: MHOM/BR/77/LTB001, 24 h
# Leishmania infantum [4] = test: Antiprotozoal activity against Leishmania infantum intracellular amastigotes infected in human THP-1 derived macrophage cells assessed as reduction in parasite viability measured for 72 hrs by resazurin/alamar blue fluorometric assay; type: functional, organism-based; conditions: THP-1, 72 h
# Leishmania infantum [5] = test: Antileishmanial activity against Leishmania infantum promastigotes assessed as reduction in cell viability incubated for 24 hrs by propidium iodide staining based flow cytometry assay; type: functional, organism-based
# Leishmania amazonensis [6] = test: Antileishmanial activity against Leishmania amazonensis intracellular amastigotes assessed as parasite growth inhibition at 109 uM incubated for 96 hrs relative to control; type: functional; set-up: scale not given: the % may be the effect or the level left
# [7] = Cytotoxicity against mouse Peritoneal macrophages assessed as reduction in cell viability incubated for 24 hrs by MTT assay; type: toxicity, cell-based, Peritoneal macrophage
# Leishmania tropica = test: Antileishmanial activity against Leishmania tropica promastigote assessed as inhibition of parasite growth incubated for 72 hrs by MTT assay; type: functional, organism-based
# Leishmania braziliensis [8] = test: Antileishmanial activity against Leishmania braziliensis MHOM/Br/75/M2903 promastigotes assessed as reduction in parasite growth incubated for 72 hrs by MTT assay; type: functional, organism-based; conditions: MHOM/Br/75/M2903, 72 h
# Leishmania braziliensis [9] = test: Antileishmanial activity against Leishmania braziliensis MHOM/Br/75/M2903 amastigotes assessed as reduction in parasite growth incubated for 72 hrs by MTT assay; type: functional, organism-based; conditions: MHOM/Br/75/M2903, 72 h
smiles,measurement,setting,value
CC[C@H](CC[C@@H](C)[C@H]1CC[C@H]2[C@@H]3CC=C4C[C@@H](O)CC[C@]4(C)[C@H]3CC[C@]12C)C(C)C [BETA-SITOSTEROL],IC50,Leishmania donovani,17.7 µg/mL
O=C(NCc1ccc2ncccc2c1)c1cnn(-c2ncc3c(n2)-c2ccccc2CCC3)c1C1CC1,IC50,[1],58 µM
CC1=CC(=O)C[C@H]2[C@H]1CC[C@@H](C)C21C[C@H](c2ccoc2)OC1=O (stereo partly specified),IC50,Leishmania amazonensis [2],6.3 µg/mL
same,IC50,Leishmania amazonensis [3],20 µg/mL
CC[C@@]1(O)C(=O)OCc2c1cc1n(c2=O)Cc2c-1nc1ccccc1c2/C=N/OC(C)(C)C [GIMATECAN],IC50,Leishmania infantum [4],0.1 µM
same,IC50,Leishmania infantum [5],1.73 µM
C=C(C)[C@@H]1CC[C@@]2(C)[C@H]1[C@H]1CC[C@@H]3[C@@]4(C)CC[C@H](O)C(C)(C)[C@@H]4[C@H](O)C[C@@]3(C)[C@]1(C)C[C@@H]2O,Activity,Leishmania amazonensis [6],80%
CC/C=C\C/C=C\CCC/C=C/C=C/C=C\CCCC(=O)O,IC50 at 24 h,[7],2 µM
C[C@@H]1O[C@@H](OC[C@H]2O[C@@H](Oc3c(-c4ccc(O)c(O)c4)oc4cc(O)cc(O)c4c3=O)[C@H](O)[C@@H](O)[C@@H]2O)[C@H](O)[C@H](O)[C@H]1O [RUTIN],IC50,Leishmania tropica,91.2 µg/mL
Oc1ccc(/C=N\Nc2ccccc2)c(O)c1,IC50,Leishmania braziliensis [8],7.3 µM
same,IC50,Leishmania braziliensis [9],21.7 µM
